For series [1] the following is noted: reported by Arichi et al., Chem. Pharm. Bull. 30(5) 1766-1770 (1982); cited from earlier work.
For series [2] the following is noted: reported by Inamori et al., Chem. Phar. Bull. 33(7):2904-09 (1985); cited from earlier work.
The nature of series [3]: Food consumption in fat fed, STZ treated rats. Type of series: in vivo, rat. The conditions noted are these: 250 mg/kg q.d., FIG. 4. Here is the method:
FIG. 4 is a line graph showing the mean food consumption (mg) in fat fed, STZ treated rats administered with GELUCIRE™ vehicle only; and 3-hydroxy-4-(3-methyl-2-butenyl)-5-methoxystilbene-2-carboxylic acid (Compound A). -O- represents vehicle; and -▪- represents Compound A administered at 250 mg/kg q.d. Animals were administered the vehicle and compounds at 24, 48, 72 and 96 h, and […] were measured at 0, 30, 51, 54, 75 and 80 hours after the oral administration. All data points N=8. *P<0.05 (analysis of variance (ANOVA), one factor).
(§1) Male Sprague Dawley rats arrival from Charles River Laboratories, Hollister, Calif., were fed a high fat (20% by weight) diet (TD 78463) obtained from Harlan Teklad, Madison, Wis., which was stored at 4° C. prior to use. Administration of a high fed diet is a well-known method of inducing hypertriglyceridemia in rats.
(§2) Compound A formulations were prepared fresh daily. The appropriate amount of Compound A in GELUCIRE™ was administered by oral gavage at a volume of 2.5 ml/kg of body weight. Animals were fasted at 8:00 am each day.

The subject of series [4] is fat fed, STZ treated male Sprague Dawley rats. Kind of series: Serum triglyceride levels in fat-fed STZ treated rats (model of hypertriglyceridemia). Type of series: in vivo, rat. An excerpt:
This example illustrates the effectiveness of the stilbenoids of formula (I) in reducing serum triglyceride levels in fat-fed STZ treated male Sprague Dawley rats, i.e., an art-recognized model of hypertriglyceridemia.
This example illustrates the effectiveness of the stilbenoids of formula (I), e.g. longistyline A-2-carboxylic acid (Compound A) in reducing serum triglyceride levels in fat fed, STZ treated male Sprague Dawley rats, i.e., an art recognized model of hypertriglyceridemia. […]
Blood samples from tail snips bleeds were collected six hours after the dose on day one, and three (3) and six (6) hours after the administration of the dose on days 2 through 4 into M brand (Becton Dickinson, Franklin Lakes, NJ) serum separator tubes, and centrifuged at 12,000 rpm for 10 minutes. Serum was removed and triglyceride levels were measured using enzymatic […] methods (M. W. McGowan, et al., Clin. Chem. 29, 538 (1983) and P Trinder, Ann. Clin. Biochem. 6, 24 (1969)) using Sigma Diagnostic Kits, Sigma Chemical Company, St. Louis, Mo.
Triglyceride levels are expressed as the mean +SEM. Data were analyzed by one-way analysis of variance (ANOVA), followed by post-hoc Fisher's protected least squares difference (PLSD) tests. […]

Series [5] can be described thus: Body weight in fat fed, STZ treated rats. The conditions noted are these: 250 mg/kg q.d., FIG. 3. The series is classed as in vivo, rat. As to the method: FIG. 3 is a line graph showing the mean body weight […] in fat fed, STZ treated rats administered with GELUCIRE™ vehicle only; and 3-hydroxy-4-(3-methyl-2-butenyl)-5-methoxystilbene-2-carboxylic acid (Compound A). -O- represents vehicle; and -▪- represents Compound A administered at 250 mg/kg q.d. Animals were administered the vehicle and compounds at 24, 48, 72 and 96 h, and […] were measured at 0, 30, 51, 54, 75 and 80 hours after the oral administration. All data points N=8. *P<0.05 (analysis of variance (ANOVA), one factor).
as §1, §2

The source of these data is patent US20020055541A1, “Compositions containing hypotriglyceridemically active stilbenoids” (Shaman Pharmaceuticals, Inc., priority 2000, published 2002).

For the molecule `OC[C@H]1OC(Oc2c(O)cc(O)cc2C=Cc2ccc(O)cc2)[C@H](O)[C@@H](O)[C@@H]1O` (stereo partly drawn) [2,3,5,4′-tetrahydroxy stilbene-2-O-D-glucoside], the Serum triglyceride levels result in series [1] was “reduce”.

As to `Oc1cc(O)cc(C=Cc2ccc(O)c(O)c2)c1` [3,3′,4,5′-tetrahydroxystilbene], the Antifungal activity entry in series [2] was “strong”.

For `COc1cc(/C=C/c2ccccc2)c(C(=O)O)c(O)c1CC=C(C)C` [Compound A, 3-hydroxy-4-(3-methyl-2-butenyl)-5-methoxystilbene-2-carboxylic acid], the “Food intake (daily mean food consumption)” value in series [3] is “not effected by the treatments”. In addition, the “Serum triglyceride (TG) levels vs vehicle only, at each of the time points” value in series [4] (250 mg/kg body weight q.d. oral gavage in GELUCIRE vehicle, fat fed STZ rats, N=8, p<0.05, FIG. 2) was “significantly lower”. In series [4] (250 mg/kg body weight q.d., from day 2 through the end of treatment), the “Mean TG levels vs GELUCIRE vehicle group, compared at individual sampling times” value is listed as “significantly lower”. Besides, the “Gain in rat body weight over the course of treatment” value in series [5] is “normal and similar among the treatment groups”.

As for `OC[C@H]1O[C@@H](Oc2cc(O)cc(/C=C/c3ccc(O)cc3)c2)[C@H](O)[C@@H](O)[C@@H]1O` [Piceid, 3,4′,5-trihydroxystilbene-3-O-β-D-glucopyranoside], in series [1], the Liver lipid levels entry was “lower” and the Serum triglyceride levels entry is recorded as “lower”.
